# Experimental data taken from patent US20230339854A1, “Negative Allosteric Modulation of GluN3-Containing N-Methyl-D-Aspartate Receptors” (Emory University, priority 2020, published 2023).
# Target: T1, human GluN1^FA,TL/GluN3A receptors (Homo sapiens, UniProt Q8TCU5)
# T1 construct: Human GluN3A (NP_597702.2) and rat GluN3B (NP_579842.2) were synthesized and subcloned into SP6 plasmids; expressed in transfected cells; host or cells: Xenopus laevis oocytes, cRNA injection (GluN1:GluN3 1:3)
# Assay: Two-electrode voltage-clamp recordings of GluN1^FA,TL/GluN3A receptors in Xenopus oocytes
# Format: cell-based
# Settings: @ 10 μM
# Source text: cDNA encoding human wild-type (WT) GluN1-1a (GenBank accession numbers NP_015566, hereafter GluN1) and rat GluN1-1a (NP_058706.1) were synthesized and subcloned into pGEMHE plasmid; some experiments used the rat splice variant GluN1-4a (NP_001257531.1). Human GluN3A (NP_597702.2) and rat GluN3B (NP_579842.2) were synthesized and subcloned into SP6 plasmids. For most experiments, human GluN1 was co-expressed with human GluN3A, except for mutagenesis experiments where rat GluN1 was co-expressed with human GluN3A. Rat GluN1-4a was always expressed with rat GluN3B.
# Defolliculated Xenopus laevis oocytes (stage V-VI) were obtained from Ecocyte BioScience (Austin, Texas), or prepared from commercially available Xenopus ovaries (Xenopus 1, Dexter, MI) as previously described (Hansen, et al., Mol. Pharmacol., 2013). A Drummond Nanoject II (Broomall, PA) was used to inject oocytes with cRNAs encoding GluN1 and GluN3 at a 1:3 ratio in RNase-free water. The cRNA was diluted as needed to give responses with amplitudes ranging between 200-2000 nA (0.2-10 ng total cRNA). Following cRNA injection, the oocytes were stored at 15-19° C. in Barth's solution that contained (in mM) 88 NaCl, 2.4 NaHCO3, 1 KCl, 0.33 Ca(NO3)2, 0.41 CaCl2), 0.82 MgSO4, and 5 Tris-HCl (pH 7.4 with NaOH), supplemented with 1 μg/ml streptomycin (Invitrogen, Carlsbad, CA) and 100 μg/ml gentamicin (Fisher Scientific, Pittsburgh, PA). Recordings were performed 2-5 days following cRNA microinjection at room temperature (23° C.) using a two-electrode voltage-clamp amplifier (OC725, Warner Instrument, Hamilton, CT). The signal was low-pass filtered at 10-20 Hz (4-pole, −3 dB Bessel) and digitized at the Nyquist rate using PCI-6025E or USB-6212 BNC data acquisition boards (National Instruments, Austin, TX) using EasyOocyte (http://www.easyoocyte.io/). Oocytes were placed in a custom-made chamber and continuously perfused (2.5 ml/min) with oocyte recording solution containing (in mM) 90 NaCl, 1 KCl, 10 HEPES, 0.5-1.0 BaCl2, and 0.01 EDTA (pH 7.4 with NaOH). Solutions were applied by gravity, and solution exchange was controlled through a rotary valve (Hamilton, Reno, NV). Recording electrodes were filled with 0.3-3.0 M KCl, and current responses were recorded at a holding potential of −40 mV.
# Response (%)=(100−minimum)/(1+([concentration]/IC50)^nH)+minimum (2) • where nH is the Hill slope, IC50 is the concentration that produces a half-maximal effect, and minimum is the degree of residual inhibition at a saturating concentration of the negative allosteric modulator.
# The afore-referenced compounds were screened in the same assay as EU1180-438 to determine their effects on hGluN1^FA,TL/hGluN3A receptors. Selected compounds that inhibited by more than 20% at the concentration at which they were initially evaluated (either 10 or 30 μM) were analyzed further, and a dose-response curve was generated to determine their IC50 values.
# T1 sequence (Q8TCU5 24-1115, other chains not shown): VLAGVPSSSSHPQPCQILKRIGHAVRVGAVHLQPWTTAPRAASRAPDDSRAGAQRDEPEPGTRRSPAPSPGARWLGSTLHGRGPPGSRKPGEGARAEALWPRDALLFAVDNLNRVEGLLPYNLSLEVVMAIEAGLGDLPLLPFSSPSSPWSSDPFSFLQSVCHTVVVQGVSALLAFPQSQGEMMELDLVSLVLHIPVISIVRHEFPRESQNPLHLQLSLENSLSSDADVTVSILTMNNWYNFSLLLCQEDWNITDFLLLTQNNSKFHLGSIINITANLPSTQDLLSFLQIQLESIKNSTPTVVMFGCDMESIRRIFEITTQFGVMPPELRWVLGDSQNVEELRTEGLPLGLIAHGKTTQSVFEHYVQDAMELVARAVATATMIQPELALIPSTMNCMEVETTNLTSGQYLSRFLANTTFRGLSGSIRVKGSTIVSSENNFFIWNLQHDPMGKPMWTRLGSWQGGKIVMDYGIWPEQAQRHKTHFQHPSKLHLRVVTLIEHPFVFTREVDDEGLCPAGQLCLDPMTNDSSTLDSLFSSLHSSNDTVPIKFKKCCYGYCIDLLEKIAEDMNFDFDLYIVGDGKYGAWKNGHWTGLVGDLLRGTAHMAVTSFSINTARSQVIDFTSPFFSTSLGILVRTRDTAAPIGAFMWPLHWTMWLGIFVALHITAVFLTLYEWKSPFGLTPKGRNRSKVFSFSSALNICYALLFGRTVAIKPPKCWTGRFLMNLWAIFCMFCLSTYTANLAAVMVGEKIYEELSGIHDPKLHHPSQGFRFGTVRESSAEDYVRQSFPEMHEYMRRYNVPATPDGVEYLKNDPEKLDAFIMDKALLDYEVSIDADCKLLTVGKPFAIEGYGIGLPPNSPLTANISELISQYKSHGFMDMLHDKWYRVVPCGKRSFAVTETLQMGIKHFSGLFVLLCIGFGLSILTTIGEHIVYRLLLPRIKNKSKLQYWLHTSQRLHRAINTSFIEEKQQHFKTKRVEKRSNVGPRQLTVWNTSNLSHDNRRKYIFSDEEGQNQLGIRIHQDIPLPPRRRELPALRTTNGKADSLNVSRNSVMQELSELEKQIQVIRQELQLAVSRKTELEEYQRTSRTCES
row,SMILES,"hGluN1^FA,TL/hGluN3A (100 × Idrug/Icontrol) [%]"
1,"Cc1cccc(OCC(c2ccc(OC(C)C)cc2)N2Cc3ccc(Cl)cc3C2=O)n1 (stereo not drawn) [EU1180-509, 6-chloro-2-(1-(4-isopropoxyphenyl)-2-((6-methylpyridin-2-yl)oxy)ethyl)isoindolin-1-one]",81

# Same assay, conditions: hGluN1^FA,TL/hGluN3A; read-out: IC50
row,SMILES,IC50 [µM]
1,"COc1cc(F)c(C(COc2cccc(C)n2)N2Cc3ccc(Cl)cc3C2=O)c(F)c1 (stereo not drawn) [EU1180-611, 6-Chloro-2-(1-(2,6-difluoro-4-methoxyphenyl)-2-((6-methylpyridin-2-yl)oxy)ethyl)isoindolin-1-one]",63

# Same assay, conditions: read-out: hGluN1^FA,TL/hGluN3A (100 × Idrug/Icontrol at 30 μM drug)
row,SMILES,remaining activity at 30 µM [%]
1,"COc1ccc(OCC(c2c(F)cc(OC)cc2F)N2Cc3cc(F)ccc3C2=O)cc1 (stereo not drawn) [EU1180-551, 2-(1-(2,6-Difluoro-4-methoxyphenyl)-2-(4-methoxyphenoxy)ethyl)-5-fluoroisoindolin-1-one]",92
2,"CC(C)Oc1ccc(C(COc2ccc(C(F)(F)F)cc2)N2Cc3ccccc3C2=O)cc1 (stereo not drawn) [EU1180-571, 2-(1-(4-isopropoxyphenyl)-2-(4-(trifluoromethyl)phenoxy)ethyl)isoindolin-1-one]",94
3,"COc1ccc(C(COc2cccc(C)n2)N2Cc3cc(Cl)ccc3C2=O)c(F)c1 (stereo not drawn) [EU1180-604, 5-Chloro-2-(1-(2-fluoro-4-methoxyphenyl)-2-((6-methylpyridin-2-yl)oxy)ethyl)isoindolin-1-one]",81
4,"CCOc1ccc(OCC(c2ccc(OC(C)C)cc2)N2Cc3cc(Cl)ccc3C2=O)cc1 (stereo not drawn) [EU1180-589, 5-chloro-2-(2-(4-ethoxyphenoxy)-1-(4-isopropoxyphenyl)ethyl)isoindolin-1-one]",87
5,"COc1ccc(OCC(c2ccc(OC)c(OC)c2)N2Cc3ccc(F)cc3C2=O)cc1 (stereo not drawn) [EU1180-529, 2-(1-(3,4-Dimethoxyphenyl)-2-(4-methoxyphenoxy)ethyl)-6-fluoroisoindolin-1-one]",84
6,"CC(C)Oc1ccc(C(COc2ccc(OC(F)(F)F)cc2)N2Cc3ccc(Br)cc3C2=O)cc1 (stereo not drawn) [EU1180-553, 6-bromo-2-(1-(4-isopropoxyphenyl)-2-(4-(trifluoromethoxy)phenoxy)ethyl)isoindolin-1-one]",101
7,"COc1ccc(C(COc2cccc(C)n2)N2Cc3ccc(C(F)(F)F)cc3C2=O)cc1 (stereo not drawn) [EU1180-593, 2-(1-(4-Methoxyphenyl)-2-((6-methylpyridin-2-yl)oxy)ethyl)-6-(trifluoromethyl)isoindolin-1-one]",83
8,"CC(C)Oc1ccc(C(COc2ccc(OC(F)(F)F)cc2)N2Cc3ccc(Cl)cc3C2=O)cc1 (stereo not drawn) [EU1180-540, 6-chloro-2-(1-(4-isopropoxyphenyl)-2-(4-(trifluoromethoxy)phenoxy)ethyl)isoindolin-1-one]",100
9,"COc1ccc(OCC(c2ccc(OC)cc2)N2Cc3cc(F)ccc3C2=O)cc1 (stereo not drawn) [EU1180-521, 5-Fluoro-2-(2-(4-methoxyphenoxy)-1-(4-methoxyphenyl)ethyl)isoindolin-1-one]",60
10,"COc1ccc(OCC(c2ccc(OC)cc2F)N2Cc3cc(Cl)ccc3C2=O)cc1 (stereo not drawn) [EU1180-532, 5-Chloro-2-(1-(2-fluoro-4-methoxyphenyl)-2-(4-methoxyphenoxy)ethyl)isoindolin-1-one]",95
11,"COc1ccc(OCC(c2ccc(OC)cc2)N2Cc3ccc(F)cc3C2=O)cc1 (stereo not drawn) [EU1180-522, 6-Fluoro-2-(2-(4-methoxyphenoxy)-1-(4-methoxyphenyl)ethyl)isoindolin-1-one]",25
12,"COc1cc(F)c(C(COc2cccc(C)n2)N2Cc3ccc(C(F)(F)F)cc3C2=O)c(F)c1 (stereo not drawn) [EU1180-609, 2-(1-(2,6-Difluoro-4-methoxyphenyl)-2-((6-methylpyridin-2-yl)oxy)ethyl)-6-(trifluoromethyl)isoindolin-1-one]",81
13,"CC(C)Oc1ccc(C(COc2ccc(C(F)(F)F)cc2)N2Cc3cc(Br)ccc3C2=O)cc1 (stereo not drawn) [EU1180-578, 5-bromo-2-(1-(4-isopropoxyphenyl)-2-(4-(trifluoromethyl)phenoxy)ethyl)isoindolin-1-one]",118
14,"COc1ccc(C(COc2cccc(C)n2)N2Cc3cc(Br)ccc3C2=O)cc1 (stereo not drawn) [EU1180-596, 5-Bromo-2-(1-(4-methoxyphenyl)-2-((6-methylpyridin-2-yl)oxy)ethyl)isoindolin-1-one]",92
15,"COc1ccc(OCC(c2ccc(OC(C)C)cc2)N2Cc3ccc(C(F)(F)F)cc3C2=O)cc1 (stereo not drawn) [EU1180-558, 2-(1-(4-isopropoxyphenyl)-2-(4-methoxyphenoxy)ethyl)-6-(trifluoromethyl)isoindolin-1-one]",98
16,"COc1ccc(OCC(c2ccc(OC)cc2F)N2Cc3ccc(Cl)cc3C2=O)cc1 (stereo not drawn) [EU1180-533, 6-Chloro-2-(1-(2-fluoro-4-methoxyphenyl)-2-(4-methoxyphenoxy)ethyl)isoindolin-1-one]",49
17,"CC(C)Oc1ccc(C(COc2ccc(C(F)(F)F)cc2)N2Cc3cc(F)ccc3C2=O)cc1 (stereo not drawn) [EU1180-576, 5-fluoro-2-(1-(4-isopropoxyphenyl)-2-(4-(trifluoromethyl)phenoxy)ethyl)isoindolin-1-one]",104
18,"CC(C)Oc1ccc(C(COc2ccc(C(F)(F)F)cc2)N2Cc3ccc(Cl)cc3C2=O)cc1 (stereo not drawn) [EU1180-573, 6-chloro-2-(1-(4-isopropoxyphenyl)-2-(4-(trifluoromethyl)phenoxy)ethyl)isoindolin-1-one]",100
19,"Cc1cccc(OCC(c2ccc(OC(C)C)cc2)N2Cc3cc(F)ccc3C2=O)n1 (stereo not drawn) [EU1180-513, 5-fluoro-2-(1-(4-isopropoxyphenyl)-2-((6-methylpyridin-2-yl)oxy)ethyl)isoindolin-1-one]",87
20,"COc1cc(F)c(C(COc2cccc(C)n2)N2Cc3ccc(Cl)cc3C2=O)c(F)c1 (stereo not drawn) [EU1180-611, 6-Chloro-2-(1-(2,6-difluoro-4-methoxyphenyl)-2-((6-methylpyridin-2-yl)oxy)ethyl)isoindolin-1-one]",57
21,"COc1ccc(OCC(c2c(F)cc(OC)cc2F)N2Cc3ccc(C(F)(F)F)cc3C2=O)cc1 (stereo not drawn) [EU1180-546, 2-(1-(2,6-Difluoro-4-methoxyphenyl)-2-(4-methoxyphenoxy)ethyl)-6-(trifluoromethyl)isoindolin-1-one]",96
22,"CC(C)Oc1ccc(C(COc2ccc(OC(F)(F)F)cc2)N2Cc3cc(Br)ccc3C2=O)cc1 (stereo not drawn) [EU1180-554, 5-bromo-2-(1-(4-isopropoxyphenyl)-2-(4-(trifluoromethoxy)phenoxy)ethyl)isoindolin-1-one]",101
23,"CCOc1ccc(OCC(c2ccc(OC(C)C)cc2)N2Cc3ccc(Cl)cc3C2=O)cc1 (stereo not drawn) [EU1180-588, 6-chloro-2-(2-(4-ethoxyphenoxy)-1-(4-isopropoxyphenyl)ethyl)isoindolin-1-one]",67
24,"COc1ccc(OCC(c2c(F)cc(OC)cc2F)N2Cc3cc(Cl)ccc3C2=O)cc1 (stereo not drawn) [EU1180-547, 5-Chloro-2-(1-(2,6-difluoro-4-methoxyphenyl)-2-(4-methoxyphenoxy)ethyl)isoindolin-1-one]",98
25,"COc1ccc(C(COc2cccc(C)n2)N2Cc3ccc(F)cc3C2=O)c(F)c1 (stereo not drawn) [EU1180-602, 6-Fluoro-2-(1-(2-fluoro-4-methoxyphenyl)-2-((6-methylpyridin-2-yl)oxy)ethyl)isoindolin-1-one]",73
26,"COc1ccc(C(COc2cccc(C)n2)N2Cc3ccc(F)cc3C2=O)cc1 (stereo not drawn) [EU1180-599, 6-Fluoro-2-(1-(4-methoxyphenyl)-2-((6-methylpyridin-2-yl)oxy)ethyl)isoindolin-1-one]",57
27,"COc1ccc(OCC(c2ccc(OC)c(OC)c2)N2Cc3ccc(Cl)cc3C2=O)cc1 (stereo not drawn) [EU1180-525, 6-Chloro-2-(1-(3,4-dimethoxyphenyl)-2-(4-methoxyphenoxy)ethyl)isoindolin-1-one]",94

# System: GluN1/GluN2 NMDA receptors (GluN2A, GluN2B, GluN2C, GluN2D)
# Assay: Recombinant GluN1/GluN2 NMDA receptors in Xenopus oocytes (selectivity)
# Format: cell-based, rat
# Settings: not given
row,SMILES,activity toward recombinant GluN1/GluN2 NMDA receptors (GluN2A-D)
1,"Cc1cccc(OCC(c2ccc(OC(C)C)cc2)N2Cc3ccc(Cl)cc3C2=O)n1 (stereo not drawn) [EU1180-509, 6-chloro-2-(1-(4-isopropoxyphenyl)-2-((6-methylpyridin-2-yl)oxy)ethyl)isoindolin-1-one]",None of them showed any activity
